We go through one compound from patent US20050080103A1, “Procedure for asthmatic, and other non-invasive surgery for brain tumor cures” (priority 2003, published 2005).

This series relates to asthma (attributed by the author to a brain tumor). Description: Self-treatment of the inventor's asthma by repeated deep inhalation of evaporated free base cocain. The note with it: inventor's self-report.

“Also recorded” adds a separate entry of the source.

With `COC(=O)[C@H]1[C@@H](OC(=O)c2ccccc2)C[C@@H]2CC[C@H]1N2C` [cocain], the “Outcome on asthma / asthma attacks” value (one person, evaporated free base piece about 1/10 gram inhaled once per half hour, 32 sessions over 16 hours, outcome realized 4 months later) was “effected the cure of my asthma; also recorded: not getting any more asthma attacks”. Moreover, where the note is “one full deep breath of evaporated free base cocain per session”, the “Time until the metabolic use of one inhaled dose came to an end (session duration)” value is recorded as “approximately one half”.
